Test results as given in US7091351B2, “Vanadium compounds for treating cancer” (Parker Hughes Institute, priority 1998, dated 2006).
Like-named read-outs stand apart in the source and are kept apart here.

What was measured:
Format in all cases: cell-based, human
[1] = test system: NALM-6 cells; assay: MTT cytotoxicity assay of oxovanadium(IV) compounds, NALM-6; settings: 48 hr
Protocol: (§1) The cytotoxicity of oxovanadium (W) complexes listed in Table 6 were tested against 9 different human cancer cell lines was performed using the MTT (3-[4,5-dimethylthiazol-2-yl]-2,5-diphenyl tetrazolium bromide) assay (Boehringer Mannheim Corp., Indianapolis, Ind.) as described previously (20). Briefly, exponentially growing tumor cells were seeded into a 96-well plate at a density of 4×10^4cells/well and incubated with medium containing the oxovanadium(IV) compounds concentrations ranging from 0.1 to 250 μM for 48 hours at 37° C. in a humidified 5% CO2 atmosphere. Triplicate wells were used for each treatment. To each well, 10 μl of MTT (0.5 mg/ml final concentration) was added and the plates were incubated at 37° C. for 4 hours to allow MTT to form formazan crystals by reacting with metabolically active cells . The formazan crystals were solubilized overnight at 37° C. in a solution containing 10% SDS in 0.01 M HCl. The absorbence of each well was measured in a microplate reader (Labsystems) at 540 nm and a reference wavelength of 690 nm. To translate the OD540 values into the number of live cells in each well, the OD540 values were compared to those on standard OD540—versus—cell number curves generated for each cell line. The percent survival was calculated using the formula: % survival=Live cell number[test]/Live cell number [control]×100. The IC50 values were calculated by non-linear regression analysis using an Graphpad Prism software version 2.0 (Graphpad Software, Inc., San Diego, Calif.).

[2] = test system: MOLT-3 cells; assay: MTT cytotoxicity assay of oxovanadium(IV) compounds, MOLT-3; settings: 48 hr
Protocol: as §1

[3] = test system: HS445 Hodgkin's lymphoma cells; assay: MTT cytotoxicity assay of oxovanadium(IV) compounds, HS445; settings: 48 hr
Protocol: as §1

[4] = test system: HL-60 cells; assay: MTT cytotoxicity assay of oxovanadium(IV) compounds, HL-60; settings: 48 hr
Protocol: as §1

[5] = test system: U266BL multiple myeloma cells; assay: MTT cytotoxicity assay of oxovanadium(IV) compounds, U266BL; settings: 48 hr
Protocol: as §1

[6] = test system: ARH77 multiple myeloma cells; assay: MTT cytotoxicity assay of oxovanadium(IV) compounds, ARH77; settings: 48 hr
Protocol: as §1, with “Briefly, exponentially growing tumor cells were seeded into a 96-well plate at a density of 4×10^4cells/well and incubated with medium containing the oxovanadium(IV) compounds concentrations ranging from 0.1 to 250 μM for 48 hours at 37° C. in a humidified 5% CO2 atmosphere.” left out

[7] = test system: HS-SULTAN multiple myeloma cells; assay: MTT cytotoxicity assay of oxovanadium(IV) compounds, HS-SULTAN; settings: 48 hr
Protocol: as §1

[8] = test system: 833-K testicular cancer cells; assay: Cytotoxic activity of oxovanadium(IV) compounds, 833-K
Protocol: as §1

[9] = test system: 64cp5 testicular cancer cells; assay: Cytotoxic activity of oxovanadium(IV) compounds, 64cp5
Protocol: as §1

[10] = test system: Tera-2 testicular cancer cells; assay: Cytotoxic activity of oxovanadium(IV) compounds, TERA-2
Protocol: as §1

[11] = test system: NTD1 testicular cancer cells; assay: Cytotoxic activity of oxovanadium(IV) compounds, NTD1
Protocol: as §1

[12] = test system: U373 glioblastoma cells; assay: Cytotoxic activity of oxovanadium(IV) compounds, U373
Protocol: as §1

[13] = test system: BT20 breast cancer cells; assay: Cytotoxic activity of oxovanadium(IV) compounds, BT20
Protocol: as §1

[14] = test system: PC3 prostate cancer cells; assay: Cytotoxic activity of oxovanadium(IV) compounds, PC3
Protocol: as §1

[15] = read-out: Cytotoxic Activity 833-K
[16] = read-out: Cytotoxic Activity 64cp5
[17] = read-out: Cytotoxic Activity TERA-2
[18] = read-out: Cytotoxic Activity NTD1
[19] = read-out: Cytotoxic Activity U373
[20] = read-out: Cytotoxic Activity BT20
[21] = read-out: Cytotoxic Activity PC3

Row | Compound | IC50 [1] | IC50 [2] | IC50 [3] | IC50 [4] | IC50 [5] | IC50 [6] | IC50 [7] | IC50 [8, 15] | IC50 [9, 16] | IC50 [10, 17] | IC50 [11, 18] | IC50 [12, 19] | IC50 [13, 20] | IC50 [14, 21] | also measured
1 | CC(=O)c1cc(Br)ccc1[O][V](=[O])[O]c1ccc(Br)cc1C(C)=O [Compound 40, bis(5′-bromo-2′-hydroxyacetophenone)oxovanadium(IV)] | 17.4 ± 0.9 µM | 41.8 ± 3.9 µM | 96.5 ± 6.4 µM | > 100 µM | 98.1 ± 6.7 µM | > 100 µM | 78.4 ± 5.8 µM | > 100 µM | > 100 µM | 35.4 µM | > 100 µM | > 100 µM | > 100 µM | – | –
2 | (diaqua)(5-chloro-1,10-phenanthroline)oxovanadium(IV) sulfate [Compound 30] | 3.6 ± 0.07 µM | 3.4 ± 0.03 µM | 7.5 ± 2.5 µM | 15.3 ± 4.9 µM | 8.5 ± 1.2 µM | 30.3 ± 5.6 µM | 9.9 ± 5.4 µM | 12.8 µM | 10.9 µM | 18.1 µM | > 100 µM | 22.4 µM | 18.2 µM | 12.4 µM | –
3 | (diaqua)(2,2′ bipyridyl)oxovanadium(IV) sulfate [Compound 34] | 14.9 ± 0.6 µM | 13.1 ± 1.1 µM | 41.7 ± 5.4 µM | > 100 µM | 30.4 ± 7.8 µM | > 100 µM | 62.8 ± 2.3 µM | – | – | – | – | – | – | – | IC50 [8]: > 100 µM; IC50 [9]: > 100 µM; IC50 [10]: > 100 µM; IC50 [11]: > 100 µM; IC50 [12]: 58.4 µM; IC50 [13]: 51.2 µM; IC50 [14]: 55.8 µM
4 | (diaqua)(2,2′-bipyrimidine)oxovanadium(IV) sulfate [Compound 38] | 12.1 ± 1.6 µM | 27.7 ± 2.5 µM | 96.5 ± 8.6 µM | > 100 µM | 91.2 ± 9.9 µM | > 100 µM | > 100 µM | > 100 µM | > 100 µM | 74.3 µM | > 100 µM | > 100 µM | > 100 µM | – | –
5 | bis(2,2′-bipyridyl)sulfatooxovanadium(IV) [Compound 35] | 15.5 ± 3.8 µM | 14.2 ± 3.8 µM | 21.6 ± 4.3 µM | 31.4 ± 6.9 µM | 32.1 ± 5.2 µM | 26.8 ± 5.4 µM | 35.4 ± 3.3 µM | 96.2 µM | > 100 µM | > 100 µM | > 100 µM | > 100 µM | 70.8 µM | 56.2 µM | –
6 | bis(2,2′-bipyrimidine)sulfatooxovanadium(IV) [Compound 39] | 12.2 ± 2.3 µM | 35.1 ± 4.7 µM | 98.4 ± 9.1 µM | > 100 µM | 99.1 ± 8.1 µM | > 100 µM | > 100 µM | > 100 µM | > 100 µM | > 100 µM | > 100 µM | > 100 µM | > 100 µM | – | –
7 | bis(1,10-phenanthroline)sulfatooxovanadium(IV) [Compound 27] | 0.97 ± 0.1 µM | 1.4 ± 0.04 µM | 5.8 ± 1.2 µM | 4.6 ± 1.4 µM | 2.2 ± 0.6 µM | 3.3 ± 0.8 µM | 4.4 ± 0.8 µM | 7.5 µM | 18.5 µM | 37.6 µM | > 100 µM | 6.8 µM | 7.2 µM | 10.8 µM | –
8 | (diaqua)(5-nitro-1,10-phenanthroline)oxovanadium(IV) sulfate [Compound 32] | 4.1 ± 0.4 µM | 2.3 ± 0.3 µM | 9.1 ± 2.5 µM | 4.9 ± 1.2 µM | 18.1 ± 5.1 µM | 5.4 ± 1.5 µM | 14.5 ± 2.5 µM | 11.5 µM | 25.4 µM | 7.2 µM | 20.2 µM | 20.5 µM | 13.7 µM | 12.9 µM | –
9 | (diaqua) (1,10-phenanthroline)oxovanadium(IV) sulfate [Compound 26] | 3.4 ± 0.2 µM | 2.7 ± 0.2 µM | 6.3 ± 1.8 µM | 3.2 ± 1.1 µM | 3.5 ± 0.5 µM | 15.6 ± 3.2 µM | 11.2 ± 2.2 µM | 12.8 µM | 8.5 µM | > 100 µM | > 100 µM | 7.7 µM | 6.6 µM | 11.2 µM | –
10 | bis(5-chloro-1,10-phenanthroline)sulfatooxovanadium(IV) [Compound 31] | 1.6 ± 0.03 µM | 2.1 ± 0.2 µM | 5.2 ± 1.1 µM | 5.3 ± 1.8 µM | 3.7 ± 1.1 µM | – | 5.8 ± 0.6 µM | 4.6 µM | > 100 µM | 24.2 µM | 50.1 µM | 6.3 µM | 5.4 µM | 4.6 µM | –
11 | (diaqua)(4,4′-dimethyl-2,2′-bipyridyl)oxovanadium(IV) sulfate [Compound 36] | 8.5 ± 0.5 µM | 8.2 ± 0.5 µM | 27.8 ± 3.4 µM | 38.6 ± 4.5 µM | 38.4 ± 3.2 µM | > 100 µM | 65.1 ± 6.1 µM | > 100 µM | > 100 µM | > 100 µM | > 100 µM | > 100 µM | > 100 µM | – | –
12 | bis(4,4′-dimethyl-2,2′-bipyridyl) sulfatooxovanadium(IV) [Compound 37] | 3.9 ± 0.3 µM | 4.8 ± 0.3 µM | 12.6 ± 3.3 µM | 28.4 ± 3.8 µM | 13.3 ± 5.1 µM | 58.3 ± 6.8 µM | 11.4 ± 2.2 µM | 34.9 µM | > 100 µM | > 100 µM | > 100 µM | 25.6 µM | 15.7 µM | – | –
